Measured values taken from ChEMBL document CHEMBL4190340, “Studies on the cytotoxicity and anticancer performance of heterocyclic hypervalent organobismuth(III) compounds” (Eur J Med Chem, 2017).
Activity calls are given as the source filed them. The calls are words filed in the database; no cut-off is given here.

What was measured:
A549 [1] = test: Cytotoxicity against human A549 cells assessed as reduction in cell viability after 48 hrs by CCK8 assay; format: functional, cell-based
SGC-7901 = test: Cytotoxicity against human SGC7901 cells assessed as reduction in cell viability after 48 hrs by CCK8 assay; format: functional, cell-based
Homo sapiens = organism: Homo sapiens; test: Cytotoxicity against human […] cells assessed as reduction in cell viability after 48 hrs by CCK8 assay; format: functional, cell-based
A549 [2] = test: Upregulation of Bax protein level in human A549 cells at 3 to 10 uM after 24 hrs by Western blot analysis; format: functional, cell-based
A549 [3] = test: Induction of apoptosis in human A549 cells after 48 hrs by Annexin V-FITC/propidium iodide staining based flow cytometric analysis; format: functional, cell-based
A549 [4] = test: Induction of apoptosis in human A549 cells assessed as early apoptotic cells by Annexin V-FITC/propidium iodide staining based flow cytometric analysis (reference value: 1.43%); format: functional, cell-based
A549 [5] = test: Induction of apoptosis in human A549 cells assessed as necrotic cells at 3 uM after 48 hrs by Annexin V-FITC/propidium iodide staining based flow cytometric analysis (reference value: 1.21%); format: functional, cell-based
A549 [6] = test: Upregulation of Bax mRNA expression in human A549 cells at 10 uM after 24 hrs by qRT-PCR analysis; format: functional, cell-based
A549 [7] = test: Induction of apoptosis in human A549 cells assessed as nuclear enrichment at 10 uM after 48 hrs by Annexin V-FITC/propidium iodide staining based laser scanning confocal microscopic analysis; format: functional, cell-based
A549 [8] = test: Induction of apoptosis in human A549 cells assessed as necrotic cells at 10 uM after 48 hrs by Annexin V-FITC/propidium iodide staining based flow cytometric analysis (reference value: 1.21%); format: functional, cell-based
A549 [9] = test: Induction of apoptosis in human A549 cells assessed as late apoptotic cells at 3 uM after 48 hrs by Annexin V-FITC/propidium iodide staining based flow cytometric analysis (reference value: 1.73%); format: functional, cell-based
A549 [10] = test: Induction of apoptosis in human A549 cells assessed as early apoptotic cells in presence of z-VAD-fmk by Annexin V-FITC/propidium iodide staining based flow cytometric analysis (reference value: 1.43%); format: functional, cell-based
A549 [11] = test: Induction of apoptosis in human A549 cells assessed as late apoptotic cells in presence of z-VAD-fmk by Annexin V-FITC/propidium iodide staining based flow cytometric analysis (reference value: 1.66%); format: functional, cell-based
A549 [12] = test: Induction of apoptosis in human A549 cells assessed as cell shrinkage at 10 uM after 48 hrs by Annexin V-FITC/propidium iodide staining based laser scanning confocal microscopic analysis; format: functional
A549 [13] = test: Induction of apoptosis in human A549 cells assessed as membrane blebbing at 10 uM after 48 hrs by Annexin V-FITC/propidium iodide staining based laser scanning confocal microscopic analysis; format: functional, cell-based
A549 [14] = test: Induction of apoptosis in human A549 cells assessed as late apoptotic cells at 10 uM after 48 hrs by Annexin V-FITC/propidium iodide staining based flow cytometric analysis (reference value: 1.73%); format: functional, cell-based
A549 [15] = test: Induction of apoptosis in human A549 cells assessed as late apoptotic cells by Annexin V-FITC/propidium iodide staining based flow cytometric analysis (reference value: 1.66%); format: functional, cell-based
A549 [16] = test: Induction of apoptosis in human A549 cells assessed as early apoptotic cells at 3 uM after 48 hrs by Annexin V-FITC/propidium iodide staining based flow cytometric analysis (reference value: 2.89%); format: functional, cell-based
A549 [17] = test: Induction of apoptosis in human A549 cells assessed as connection disappearance at 10 uM after 48 hrs by Annexin V-FITC/propidium iodide staining based laser scanning confocal microscopic analysis; format: functional, cell-based
A549 [18] = test: Induction of apoptosis in human A549 cells assessed as necrotic cells by Annexin V-FITC/propidium iodide staining based flow cytometric analysis (reference value: 0.96%); format: functional, cell-based
A549 [19] = test: Induction of apoptosis in human A549 cells assessed as reduction in pro caspase 3 level at 10 uM after 24 hrs by Western blot analysis; format: functional, cell-based
A549 [20] = test: Downregulation of Bcl-2 protein level in human A549 cells at 3 to 10 uM after 24 hrs by Western blot analysis; format: functional, cell-based
SW480 = test: Cytotoxicity against human SW480 cells assessed as reduction in cell viability after 48 hrs by CCK8 assay; format: functional, cell-based
A549 [21] = test: Induction of apoptosis in human A549 cells assessed as necrotic cells in presence of z-VAD-fmk by Annexin V-FITC/propidium iodide staining based flow cytometric analysis (reference value: 0.96%); format: functional, cell-based
A549 [22] = test: Induction of apoptosis in human A549 cells assessed as early apoptotic cells at 10 uM after 48 hrs by Annexin V-FITC/propidium iodide staining based flow cytometric analysis (reference value: 2.89%); format: functional, cell-based
A549 [23] = test: Downregulation of Bcl-2 mRNA expression in human A549 cells at 10 uM after 24 hrs by qRT-PCR analysis; format: functional, cell-based

## 5H-dibenzo[c,f][1,5]oxabismocin-12(7H)-yl nitrate
A549 [1]
  Activity: Dose-dependent effect
SGC-7901
  Activity: Dose-dependent effect
Homo sapiens
  Activity: Dose-dependent effect
A549 [2]
  Activity: Active
A549 [3]
  Activity: Dose-dependent effect
A549 [4]
  Activity: 18.6%
A549 [5]
  Activity: 0.617%
A549 [6]
  Activity: Active
A549 [7]
  Activity: Active
A549 [8]
  Activity: 6.68%
A549 [9]
  Activity: 4.16%
A549 [10]
  Activity: 3.19%
A549 [11]
  Activity: 5.26%
A549 [12]
  Activity: Active
A549 [13]
  Activity: Active
A549 [14]
  Activity: 4.24%
A549 [15]
  Activity: 10.2%
A549 [16]
  Activity: 5.18%
A549 [17]
  Activity: Active
A549 [18]
  Activity: 2.24%
A549 [19]
  Activity: Active
A549 [20]
  Activity: Active
SW480
  Activity: Dose-dependent effect
A549 [21]
  Activity: 2.66%
A549 [22]
  Activity: 17.4%
A549 [23]
  Activity: Active
